# Experimental data published in patent US20260234144A1 (TAY THERAPEUTICS LIMITED, priority 2023, published 2026).
# Experiments:
# [1] = tested on: R213X mutation in the p53 gene, HDQ-P1 cells; assay: Read-through of R213X mutation in HDQ-P1 cells: truncated and full-length p53 by automated capillary electrophoresis western analysis; format: cell-based; settings: Homo sapiens; for EC (50% of 200 uM G418 response): pC50% NMD: production of truncated p53, concentration giving 50% of the response of 200 μM G418, 24 h; for EC (100% of 200 uM G418 response): pC100% RT: production of full-length p53, concentration giving the same response as 200 μM G418, 24 h
# Procedure: The ability of compounds to promote read-through in cells was assessed using the HDQ-P1 cell line which contain the R213X mutation in the p53 gene. […] Changes in the protein levels of p21, a direct downstream target of p53, were also determined as evidence of functional p53 protein production.
# HDQ-P1 cells (R213X) were treated with DMSO (0.3%), or test article for 24 h at various concentrations. Cells were washed once with ice cold 1×PBS and lysed in M-Per protein extraction reagent (ThermoFisher), Benzonase® Nuclease and protease inhibitor mixture (Roche) centrifuged at 4° C. for 15 min at 16 000×g, the supernatants, termed cell extracts, were collected and total proteins were quantified with Bradford protein assay kit (ThermoFisher). Briefly, mixtures of cell lysates (protein concentration 0.5 mg/mL) and the fluorescent master mix were heated at 95° C. for 5 min. […] Signals were generated using BioTechne anti-mouse detection module and anti-rabbit NIR detection module. […] As an additional loading control, total protein levels were assessed with the ProteinSimple protein normalisation module. The data were acquired and analysed using the inbuilt Compass software (ProteinSimple) with the high dynamic range detection profile, which uses multiple substrate injections and exposure times. Electropherograms were converted to pseudo-blots and presented in figures for ease of visualization.
# Concentration effect curves for both the production of truncated and full-length p53 were analysed using non-linear regression using the CDD Vault from Collaborative Drug Discovery (Burlingame, CA). […] The bottom and top of the curves were constrained to 0 and the maximum measured response respectively. From the fitted curves, the software derived C100% or C50% values (the concentration giving the same or 50% of the response of 200 μM G418) for each compound. The negative logarithm of C50% or C100% is reported as pC50% NMD or pC100% RT for the production of truncated or full-length p53 respectively (Table 2).
# [2] = tested on: R223X stop codon in the mutated luciferase gene, ADXC8 luciferase reporter cell line; assay: cells; format: cell-based; settings: ADXC8 cells, 24 hours; for EC (100% of 200 uM G418 response) / Emax: 24 h; for EC (100% of 200 uM G418 response): read-out: pC100%, negative logarithm of the concentration giving the same response as 200 μM G418; for Emax: read-out: Fold Over Control, maximum fold response relative to 200 μM G418
Structure (SMILES),EC (50% of 200 uM G418 response) [1] [µM],EC (100% of 200 uM G418 response) [1] [µM],EC (100% of 200 uM G418 response) [2] [µM],Emax [2] [%],Fold Over Control ([2]; maximum fold response relative to 200 μM G418),pC100% ([2]; negative logarithm of the concentration giving the same response as 200 μM G418)
CCNc1nc(NC2CCN(C)CC2)nc2nc(C)cc(C)c12 [Example 322],1 to 10,1 to 10,0.1 to 1,,,
CO[C@H]1CNC[C@@H]1Nc1nc(N)c2c(C)cc(C)nc2n1 [Example 583],1 to 10,,0.01 to 0.1,,,
"CN1CCC(Nc2nc(N)c3c4c(c(-c5ccccc5)nc3n2)CCC4)CC1 [Example 45, N^3-(1-methylpiperidin-4-yl)-6-phenyl-8,9-dihydro-7H-cyclopenta[4,5]pyrido[2,3-d]pyrimidine-1,3-diamine]",1 to 10,1 to 10,0.1 to 1,100 to 3000,,
Cc1c2c(nc3nc(NC4CCN(Cc5cccc(F)c5O)CC4)nc(N)c13)CCC2 [Example 532],0.1 to 1,1 to 10,0.01 to 0.1,100 to 3000,,
Cc1c2c(nc3nc(NC4CCNCC4)nc(N)c13)CCC2 [Example 577],1 to 10,1 to 10,0.01 to 0.1,100 to 3000,,
CNc1nc(N[C@H]2CNC[C@H]2F)nc2nc3c(c(C)c12)CCC3 [Example 343],1 to 10,1 to 10,0.1 to 1,100 to 3000,,
Cc1nc2nc(NC3CCN(Cc4cccc(F)c4O)CC3)nc(N)c2c2c1CCC2 [Example 531],1 to 10,1 to 10,0.1 to 1,100 to 3000,,
"CNc1nc(N[C@H]2CN(C)C[C@@H]2OC)nc2nc(C)cc(C)c12 [Example 228, N^2-((3S,4S)-4-methoxy-1-methylpyrrolidin-3-yl)-N^4,5,7-trimethylpyrido[2,3-d]pyrimidine-2,4-diamine]",0.1 to 1,1 to 10,0.1 to 1,100 to 3000,,
CNc1nc(N[C@H]2CN(C)C[C@@H]2O)nc2nc(C)cc(C)c12 [Example 338],1 to 10,,1 to 10,100 to 3000,,
"Cc1cc(C)c2c(N)nc(N[C@@H]3CCCNC3)nc2n1 [Example 225, (R)-5,7-dimethyl-N^2-(piperidin-3-yl)pyrido[2,3-d]pyrimidine-2,4-diamine]",0.1 to 1,1 to 10,0.1 to 1,,,
CNc1nc(NC2CCN(Cc3ccccc3O)CC2)nc2nc3c(c(C)c12)CCC3 [Example 656],0.1 to 1,0.1 to 1,0.01 to 0.1,100 to 3000,,
"CNc1nc(N[C@H]2CN(C)C[C@H]2F)nc2nc3c(c(C)c12)CCC3 [Example 233, N^2-((3S,4R)-4-fluoro-1-methylpyrrolidin-3-yl)-N^4,5-dimethyl-7,8-dihydro-6H-cyclopenta[5,6]pyrido[2,3-d]pyrimidine-2,4-diamine]",0.1 to 1,,0.1 to 1,100 to 3000,,
CNc1nc(N[C@H]2CN(C)C[C@@H]2OC)nc2nc3c(c(C)c12)CCC3 [Example 423],0.1 to 1,0.1 to 1,0.01 to 0.1,,,
Cc1nc2nc(NC3CCN(Cc4ccncc4)CC3)nc(N)c2c2c1CCC2 [Example 529],1 to 10,,0.1 to 1,100 to 3000,,
CCNc1nc(N[C@@H]2CCN(C)C2)nc2nc(C)c3c(c12)CCC3 [Example 396],1 to 10,1 to 10,0.1 to 1,,,
"CNc1nc(N[C@H]2CNCC[C@H]2OC)nc2nc(C)cc(C)c12 [Example 516, N^2-((3S,4R)-4-methoxypiperidin-3-yl)-N^4,5,7-trimethylpyrido[2,3-d]pyrimidine-2,4-diamine]",0.1 to 1,0.1 to 1,0.01 to 0.1,,,
CNc1nc(N[C@H]2CN(C)C[C@@H]2O)nc2nc(C)c3c(c12)CCC3 [Example 363],0.1 to 1,1 to 10,0.1 to 1,100 to 3000,,

Structure (SMILES),EC (50% of 200 uM G418 response) [1] [µM],EC (100% of 200 uM G418 response) [1] [µM],EC (100% of 200 uM G418 response) [2] [µM],Emax [2] [%],Fold Over Control ([2]; maximum fold response relative to 200 μM G418),pC100% ([2]; negative logarithm of the concentration giving the same response as 200 μM G418)
CC(=O)Nc1ccccc1CN1CCC(Nc2nc(N)c3c(C)cc(C)nc3n2)CC1 [Example 486],1 to 10,1 to 10,0.1 to 1,100 to 3000,,
CNc1nc(N[C@H]2CN(C)C[C@@H]2F)nc2nc3c(c(C)c12)CCC3 [Example 362],0.1 to 1,1 to 10,1 to 10,100 to 3000,,
"Cc1c(Cl)c(-c2ccccc2)nc2nc(NC3CCN(C)CC3)nc(N)c12 [Example 48, 6-chloro-5-methyl-N2-(1-methylpiperidin-4-yl)-7-phenylpyrido[2,3-d]pyrimidine-2,4-diamine]",1 to 10,1 to 10,1 to 10,,,
Cc1c2c(nc3nc(NC4CCN(Cc5ccncc5)CC4)nc(N)c13)CCC2 [Example 651],0.1 to 1,1 to 10,0.1 to 1,100 to 3000,,
"CNc1nc(N[C@H]2CNC[C@@H]2OC)nc2nc(C)cc(C)c12 [Example 227, N^2-((3S,4S)-4-methoxypyrrolidin-3-yl)-N^4,5,7-trimethylpyrido[2,3-d]pyrimidine-2,4-diamine]",1 to 10,1 to 10,0.1 to 1,,,
CNc1nc(NC2CCN(Cc3ccccc3)CC2)nc2nc3c(c(C)c12)CCC3 [Example 605],,,0.1 to 1,100 to 3000,,
Cc1cc(C)c2c(N)nc(N[C@@H]3CNC[C@H]3F)nc2n1 [Example 297],,,10 to 100,100 to 3000,,
CC#Cc1ccc2c(N)nc(NC3CCN(C)CC3)nc2n1 [Example 283],,,1 to 10,,,
CN1CCC(Nc2nc(N)c3ccc(-c4cccc(CN)c4)nc3n2)CC1 [Example 74],,,1 to 10,,,
Cc1cc(C)c2c(NC3CC3)nc(NC3CCN(C)CC3)nc2n1 [Example 320],,,1 to 10,100 to 3000,,
"CNc1nc(NC2(CO)CCNC2)nc2nc(C)cc(C)c12 (single isomer, unassigned) [Example 440]",,,,,# (Fold over Ctrl ≥ 0 ≤ 1),* (pC100 ≤ 4.5)
Cc1cc(C)c2c(N)nc(NC3CC4(CCN(C(=O)OC(C)(C)C)CC4)C3)nc2n1 [Example 132],,,> 100,0 to 100,,
CNc1nc(N[C@H]2CNC[C@@H]2O)nc2nc(C)c3c(c12)CCC3 [Example 344],,,0.01 to 0.1,,,
Cc1cc(C)c2c(N)nc(NC3CCN(Cc4cn[nH]c4)CC3)nc2n1 [Example 572],,,1 to 10,100 to 3000,,
Cc1cc(C)c2c(N)nc(NCCNCC(F)F)nc2n1 [Example 168],,,10 to 100,100 to 3000,,
CN1CCC(Nc2nc(N)c3ccc(-c4ccccc4CO)nc3n2)CC1 [Example 89],,,10 to 100,,,
Cc1cc(C)c2c(N)nc(NCCN3CC(F)(F)C3)nc2n1 [Example 169],,,> 31.6,0 to 100,,
